Reference: patent US20240084044A1, “Heteromultivalent Nucleic Acid Scaffolds and Uses Thereof” (George Mason University, priority 2022, published 2024)
Bridges are numbered along the chain shown (N, C = ends). Roman numbers before positions name the chains, in order.

How the values were obtained:
[1] = tested on: IL-33 signaling (HEK-Blue IL-33 cells); experiment: SEAP reporter assay in HEK-Blue IL-33 reporter cells; assay type: cell-based, human
Protocol: HEK-Blue® IL-33 (Invivogen, Cat. #hkb-hil33) and IL-1β cells (Invivogen, Cat #hkb-il1bv2) were cultured in T25 and T75 flasks (NUNC, Cat. #156367 and #156499) in DMEM media supplemented with L-glutamine (Gibco, Cat. #11995-065), 10% Fetal Bovine Serum (Gibco, Cat. #10437-028), 1% Penicillin/Streptomycin (Gibco, Cat. #15140-148), and 0.5% Normacin® (Invivogen, Cat. #ant-hr-1). IL-33 cell growth media also included 1 mL of 250× Selectin Cocktail® (Invivogen, Cat. #hb-sel) and IL-1β cell growth media included 100 μg/mL of Zeocin® (Cat #ant-zn-05). Cells were maintained at 37° C. with humidity and 5% CO2 and were passaged upon reaching 80-85% confluency. […]
IL-33 and IL-1β signaling activation was assessed based on the expression of a SEAP reporter gene. […] Pellet was resuspended in 5 mL test medium (DMEM, 10% heat inactivated FBS, and 1% P/S), cells counted, and concentration adjusted to 2.8×10^5 cell/mL. […] After incubation, SEAP reporter gene phosphatase activity was measured by adding 20 μL of supernatant from each well to 180 μL of QuantiBLUE substrate (Invivogen, Cat #rep-qbs) and incubated an additional 30 min at 37° C. Colorimetric absorbance was measured at 620 nm. […]
MSTOP bioactivity was determined in a reporter gene cell model. […] After six hours, IL-33 signaling was quantified by absorbance at 620 nm, based on the metabolism of QUANTI-Blue substrate by expressed SEAP secreted into the media.

[2] = tested on: HEK-Blue cells; experiment: CellTiterGlo cell viability / cellular cytotoxicity assay; assay type: cell-based, human

For “MSTOP: 3WJ DNA scaffold whose three DBCO staple strands carry cyclized azidolysine IL-1RAcP hotspot peptides; decoy for IL-33/ST2 (peptide 1 Ac-CKEYGIQRITC-NH2; peptide 2 Ac-AKVGSPKNAVPPC-NH2; peptide 3 Ac-CKGEVAKAAKVKC-NH2; disulfide I:1-I:11, III:1-III:13; thioether II:1-II:13; not fully specified (some residues); also: three peptides held on a 3-way junction DNA scaffold via DBCO staple strands)”, the “reduction in IL-33 induced SEAP expression” value ([1]; 1 μM, 100 pg/mL IL-33, 6 h) was about 40%, the “inhibition of IL-33 cells compared to IL-1β cells” value ([1]; MSTOP dose curve 10 μM to 10 nM) was “Significant inhibition” and the cell viability ([2]; 10 μM, CellTiterGlo) was “did not decrease cell viability”. For the same substance, the cellular cytotoxicity ([2]; FIG. 4F, concentrations in μM) was “not toxic”.
